Tests used:
Format in all cases: cell-based, human
COV362 = assay: Short-term growth assay (CellTiter-Glo cell viability), kinase inhibitors
Description: (§1) Cell viability was determined by Cell Titer Glo analysis.
COV362 cells were treated with increasing concentrations of A-674563 and cell viability assessed by Cell Titer Glo according to manufacturer's instructions. Data represent the mean of six replicates.
(§2) To explore the therapeutic potential of the HGSOC kinome signature, a detailed molecular analysis of protein levels/activity, growth and survival functions was carried out in a panel of recently validated HGSOC cell lines (Coscia et al., Nat. Commun., 2016, 7, 12645) that harbor commonly encountered HGSOC mutations and genetic rearrangements (see, FIG. 5A).
(§3) For short-term growth assays, 3000-5000 cells were plated per well in 96-well plates and allowed to adhere and equilibrate overnight. Drug was added the following morning and after 120 hours of drug treatment, cell viability was assessed using the CellTiter-Glo Luminescent cell viability assay according to manufacturer (Promega). Students t tests were performed for statistical analyses and p values ≤0.05 were considered significant. For colony formation assays, cells were plated in 24-well dishes (3000-5000 cells per well) and incubated overnight before continuous drug treatment for 14 days, with drug and media replaced twice weekly. At the end of treatment, cells were rinsed with PBS and fixed with chilled methanol for 10 minutes at −20° C. Methanol was removed by aspiration, and cells were stained with 0.5% crystal violet in 20% methanol for 20 minutes at room temperature, washed with distilled water, and scanned.

Kuramochi = assay: as above
Description: as §1, §2, §3

OVCAR4 = assay: as above
Description: as §1, §2, §3

OVSAHO = assay: as above
Description: as §1, §2, §3

SNU-119 = assay: as above
Description: as §1, §2, §3

HGSOC cells = assay: Cell viability of HGSOC cell line panel (Cell Titer Glo); details: increasing concentrations; Cell Titer Glo
Description: Cells were treated with increasing concentrations of PF-03758309 and cell viability assessed by Cell Titer Glo according to manufacturer's instructions. Data represent the mean of six replicates.
Cell viability was assessed by Cell Titer Glo according to manufacturing. Data represent the mean of six replicates.
as §3

OVCAR4 cells = assay: Drug growth inhibition in cells depleted of dark kinases by siRNA (Cell Titer Glo); details: increasing doses of drug
Description: OVCAR4 cells were transfected with control nontargeting or dark kinase siRNAs and treated with escalating doses of appropriate drugs.
To explore if blocking dark kinases AAK1, STK38 or MRCKA activity in combination with current therapies improves drug efficacy, OVCAR4 cells depleted of AAK1, STK38 or MRCKA were treated with increasing doses of carboplatin, olaparib, JQ1, or a variety of kinase inhibitors in clinical trials for HGSOC.
siRNA transfections were performed using 25 nM siRNA duplex and the reverse transfection protocol. 3000-5000 cells per well were added to 96 well plates with media containing the siRNA and transfection reagent (Lipofectamine RNAiMax) according to the manufacturer's instructions. In experiments where inhibitors were used, the inhibitor was added at the time of transfection. Cells were allowed to grow for 72-120 hours post-transfection prior to CellTiter Glo (Promega) analysis. Two-to-three independent experiments were performed with each cell line and siRNA. Students t tests were performed for statistical analyses and p values ≤0.05 were considered significant. For western blot studies, the same procedure was performed with volumes and cell numbers proportionally scaled to a 60 mm or 10 cm dish, and cells were collected 24-72 hours post-transfection. siRNA product numbers and manufacturers are listed in Table 5.

CNC(=O)c1ccccc1Nc1cc(Nc2ccc(N3CCOCC3)cc2OC)ncc1C(F)(F)F [PND1186]
Kinase inhibition profile of HGSOC cells (growth inhibition, Cell Titer Glo) (COV362; drug 1.2 uM): 0.34
Kinase inhibition profile of HGSOC cells (growth inhibition, Cell Titer Glo) (Kuramochi; drug 1.2 uM): 0.51
Kinase inhibition profile of HGSOC cells (growth inhibition, Cell Titer Glo) (OVCAR4; drug 1.2 uM): 0.51
Kinase inhibition profile of HGSOC cells (growth inhibition, Cell Titer Glo) (OVSAHO; drug 1.2 uM): 0.69
Kinase inhibition profile of HGSOC cells (growth inhibition, Cell Titer Glo) (SNU-119; drug 1.2 uM): 0
cell viability of HGSOC cells (HGSOC cells): reduced cell viability

COc1cc(Nc2ncc3c(n2)-c2ccc(Cl)cc2C(c2c(F)cccc2OC)=NC3)ccc1C(=O)O [Alisertib]
Kinase inhibition profile of HGSOC cells (growth inhibition, Cell Titer Glo) (COV362; drug 0.312 uM): 1.075
Kinase inhibition profile of HGSOC cells (growth inhibition, Cell Titer Glo) (Kuramochi; drug 0.312 uM): 0.5199
Kinase inhibition profile of HGSOC cells (growth inhibition, Cell Titer Glo) (OVCAR4; drug 0.312 uM): 0.1016
Kinase inhibition profile of HGSOC cells (growth inhibition, Cell Titer Glo) (OVSAHO; drug 0.312 uM): 0.5387
Kinase inhibition profile of HGSOC cells (growth inhibition, Cell Titer Glo) (SNU-119; drug 0.312 uM): 1.057

AZD4547
Kinase inhibition profile of HGSOC cells (growth inhibition, Cell Titer Glo) (COV362; drug 5 uM): 0.5474
Kinase inhibition profile of HGSOC cells (growth inhibition, Cell Titer Glo) (Kuramochi; drug 5 uM): 0.7095
Kinase inhibition profile of HGSOC cells (growth inhibition, Cell Titer Glo) (OVCAR4; drug 5 uM): 0.5989
Kinase inhibition profile of HGSOC cells (growth inhibition, Cell Titer Glo) (OVSAHO; drug 5 uM): 0.4351
Kinase inhibition profile of HGSOC cells (growth inhibition, Cell Titer Glo) (SNU-119; drug 5 uM): 0.738

C=CCn1c(=O)c2cnc(Nc3ccc(N4CCN(C)CC4)cc3)nc2n1-c1cccc(C(C)(C)O)n1 [MK-1775]
Kinase inhibition profile of HGSOC cells (growth inhibition, Cell Titer Glo) (COV362; drug 0.312 uM): 0.03494
Kinase inhibition profile of HGSOC cells (growth inhibition, Cell Titer Glo) (Kuramochi; drug 0.312 uM): 1.111
Kinase inhibition profile of HGSOC cells (growth inhibition, Cell Titer Glo) (OVCAR4; drug 0.312 uM): 0.6747
Kinase inhibition profile of HGSOC cells (growth inhibition, Cell Titer Glo) (OVSAHO; drug 0.312 uM): 0.5935
Kinase inhibition profile of HGSOC cells (growth inhibition, Cell Titer Glo) (SNU-119; drug 0.312 uM): 0.4312
growth inhibition by drug with MRCKA knockdown relative to non-targeting control siRNA (OVCAR4 cells): enhanced growth inhibition

CCc1cc(Nc2nccc(-c3c(-c4ccc(OC)c(C(=O)Nc5c(F)cccc5F)c4)nc4ccccn34)n2)c(OC)cc1N1CCC(N2CCN(S(C)(=O)=O)CC2)CC1 [GSK529A]
Kinase inhibition profile of HGSOC cells (growth inhibition, Cell Titer Glo) (COV362; drug 5 uM): 0.9731
Kinase inhibition profile of HGSOC cells (growth inhibition, Cell Titer Glo) (Kuramochi; drug 5 uM): 0.9732
Kinase inhibition profile of HGSOC cells (growth inhibition, Cell Titer Glo) (OVCAR4; drug 5 uM): 0.5226
Kinase inhibition profile of HGSOC cells (growth inhibition, Cell Titer Glo) (OVSAHO; drug 5 uM): 0.6574
Kinase inhibition profile of HGSOC cells (growth inhibition, Cell Titer Glo) (SNU-119; drug 5 uM): 0.6579

NC(=O)Nc1cc(-c2cccc(F)c2)sc1C(=O)N[C@H]1CCCNC1 [AZD7762]
Kinase inhibition profile of HGSOC cells (growth inhibition, Cell Titer Glo) (COV362; drug 0.312 uM): 0.05872
Kinase inhibition profile of HGSOC cells (growth inhibition, Cell Titer Glo) (Kuramochi; drug 0.312 uM): 0.663
Kinase inhibition profile of HGSOC cells (growth inhibition, Cell Titer Glo) (OVCAR4; drug 0.312 uM): 0
Kinase inhibition profile of HGSOC cells (growth inhibition, Cell Titer Glo) (OVSAHO; drug 0.312 uM): 0.7988
Kinase inhibition profile of HGSOC cells (growth inhibition, Cell Titer Glo) (SNU-119; drug 0.312 uM): 0
growth inhibition by drug with MRCKA knockdown relative to non-targeting control siRNA (OVCAR4 cells): enhanced growth inhibition

CC(=O)Nc1cccc(-n2c(=O)n(C3CC3)c(=O)c3c(Nc4ccc(I)cc4F)n(C)c(=O)c(C)c32)c1 [Trametinib]
Kinase inhibition profile of HGSOC cells (growth inhibition, Cell Titer Glo) (COV362; drug 0.0125 uM): 0.5766
Kinase inhibition profile of HGSOC cells (growth inhibition, Cell Titer Glo) (Kuramochi; drug 0.0125 uM): 0.7708
Kinase inhibition profile of HGSOC cells (growth inhibition, Cell Titer Glo) (OVCAR4; drug 0.0125 uM): 0.8436
Kinase inhibition profile of HGSOC cells (growth inhibition, Cell Titer Glo) (OVSAHO; drug 0.0125 uM): 0.7824
Kinase inhibition profile of HGSOC cells (growth inhibition, Cell Titer Glo) (SNU-119; drug 0.0125 uM): 0

CCOc1ccn(-c2ccc(F)cc2)c(=O)c1C(=O)Nc1ccc(Oc2ccnc(N)c2Cl)c(F)c1 [BMS777607]
Kinase inhibition profile of HGSOC cells (growth inhibition, Cell Titer Glo) (COV362; drug 1.2 uM): 0.9079
Kinase inhibition profile of HGSOC cells (growth inhibition, Cell Titer Glo) (Kuramochi; drug 1.2 uM): 1.007
Kinase inhibition profile of HGSOC cells (growth inhibition, Cell Titer Glo) (OVCAR4; drug 1.2 uM): 1.062
Kinase inhibition profile of HGSOC cells (growth inhibition, Cell Titer Glo) (OVSAHO; drug 1.2 uM): 1.102
Kinase inhibition profile of HGSOC cells (growth inhibition, Cell Titer Glo) (SNU-119; drug 1.2 uM): 1.028

NC1(c2ccc(-c3nc4ccn5c(=O)[nH]nc5c4cc3-c3ccccc3)cc2)CCC1 [MK2206]
Kinase inhibition profile of HGSOC cells (growth inhibition, Cell Titer Glo) (COV362; drug 0.625 uM): 0.8254
Kinase inhibition profile of HGSOC cells (growth inhibition, Cell Titer Glo) (Kuramochi; drug 0.625 uM): 0.4701
Kinase inhibition profile of HGSOC cells (growth inhibition, Cell Titer Glo) (OVCAR4; drug 0.625 uM): 0.9771
Kinase inhibition profile of HGSOC cells (growth inhibition, Cell Titer Glo) (OVSAHO; drug 0.625 uM): 0.6233
Kinase inhibition profile of HGSOC cells (growth inhibition, Cell Titer Glo) (SNU-119; drug 0.625 uM): 0.9728

From US20210318318A1, “Kinase Activity In Tumors” (Institute For Cancer Research d/b/a The Research Institute …, priority 2018, published 2021)
